Measurements published in patent US9333205B2, “Isoxazolo-quinazolines as modulators of protein kinase activity” (NERVIANO MEDICAL SCIENCES S.R.L., priority 2010, dated 2016).

Experiments:
MPS1 = MPS1 (Homo sapiens (Human), UniProt P33981); assay: Biochemical trans-phosphorylation (Dowex, 33P-γ-ATP) assay for inhibitors of MPS1 kinase activity; conditions: MPS1 5 nM, 15 microM ATP, P38-βtide 200 microM
Description: Cloning, Expression and Purification of Recombinant MPS1 Full Length Protein.
MPS1 full length (corresponding to residues 2-857 of the full length sequence, see Swiss-Prot accession number P33981) was PCR amplified from the full-length human MPS1 gene present in house as clone pGEX4t_MPS1.
Baculoviruses were generated by cotransfecting Sf9 insect cells with the expression vector and the viral DNA using the BaculoGold® transfection kit (Pharmingen). Viral supernatant was recovered after 5 days and subjected to 3 rounds of amplification to increase viral titer. Recombinant protein was produced by infecting High5 insect cells. After 72 hours of infection at 21° C., cells were recovered, pelletted and freezed at −80° C. For purification of recombinant protein, pellet was thawed, resuspended in lysis buffer (PBS, NaCl 150 mM, Glycerol 10%, CHAPS 0.1%, DTT 20 mM, protease and phosphatase inhibitors) and lysed by Gaulin. Lysate was cleared by centrifugation and loaded on a GST affinity column. After extensive wash, recombinant protein was cleaved by a specific protease and eluted by incubation.
To get a fully activated enzyme, the protein was then subjected to auto-phosphorylation in presence of ATP 1 mM at 25° C. for 2 hours in kinase buffer (Hepes pH7.5 50 mM, MgCl2 2.5 mM, MnCl2 1 mM, DTT 1 mM, phosphatase inhibitors); ATP was then removed whit a desalting column.
(§1) Biochemical Assay for Inhibitors of MPS1 and PERK Kinase Activity
(§2) The inhibitory activity of putative kinase inhibitors and the potency of selected compounds were determined using a trans-phosphorylation assay.
Specific peptide or protein substrates are trans-phosphorylated by their specific ser-thr or tyr kinase in the presence of ATP traced with ^33P-γ-ATP, and in the presence of their own optimal buffer and cofactors. […]
Supernatant is subsequently withdrawn and transferred into a counting plate, then evaluated by β-counting. […]

PERK = PERK (Homo sapiens (Human), UniProt Q9NZJ5); assay: Biochemical trans-phosphorylation (Dowex, 33P-γ-ATP) assay for inhibitors of PERK kinase activity; conditions: PERK 8 nM, 52 microM ATP, eIF2alfa-tide 300 microM
Method: Cloning, Expression and Purification of Recombinant PERK Cytoplasmic Domain Protein.
PERK cytoplasmic domain (corresponding to residues 540-1115; Swiss-Prot accession number Q9NZJ5) was PCR amplified using the following forward oligonucleotide:
Recombinant protein was produced in BL21(DE3)pLysS strain, in auto-induction medium, at 21° C. for 24 hours (see F. W. Studier, “Protein production by auto-induction in high density shaking cultures”, Protein Expression and Purification (2005) vol. 41:207-234). The cells were recovered by centrifugation, and the pellet frozen at −80° C. For purification of recombinant protein, pellet was thawed, resuspended in lysis buffer (Tris-HCl 50 mM pH 7.6, NaCl 250 mM, Glycerol 10%, CHAPS 0.2%, Imidazole 5 mM, protease and phosphatase inhibitors) and lysed by Gaulin homogenizer. Lysate was cleared by centrifugation and loaded on a Ni-NTA and the eluate on a GST affinity column. After extensive wash, recombinant protein was cleaved by a specific protease and eluted. Recombinant PERK cytoplasmic domain obtained by this protocol was >85% pure by coomassie stained SDS-PAGE.
as §1, §2
Specific peptide or protein substrates are trans-phosphorylated by their specific ser-thr or tyr kinase in the presence of ATP traced with ^33P-γ-ATP, and in the presence of their own optimal buffer and cofactors.
At the end of the phosphorylation reaction, more than 98% unlabeled ATP and radioactive ATP is captured by an excess of the ion exchange dowex resin; the resin then settles down to the bottom of the reaction plate by gravity.
Supernatant is subsequently withdrawn and transferred into a counting plate, then evaluated by β-counting.
The buffer for PERK assay was composed of HEPES 50 mM, at pH 7.5 with 3 mM MgCl2, 1 mM DTT, 3 microM Na3VO4, and 0.2 mg/mL BSA […]

MPS1, sequence (P33981 2-857): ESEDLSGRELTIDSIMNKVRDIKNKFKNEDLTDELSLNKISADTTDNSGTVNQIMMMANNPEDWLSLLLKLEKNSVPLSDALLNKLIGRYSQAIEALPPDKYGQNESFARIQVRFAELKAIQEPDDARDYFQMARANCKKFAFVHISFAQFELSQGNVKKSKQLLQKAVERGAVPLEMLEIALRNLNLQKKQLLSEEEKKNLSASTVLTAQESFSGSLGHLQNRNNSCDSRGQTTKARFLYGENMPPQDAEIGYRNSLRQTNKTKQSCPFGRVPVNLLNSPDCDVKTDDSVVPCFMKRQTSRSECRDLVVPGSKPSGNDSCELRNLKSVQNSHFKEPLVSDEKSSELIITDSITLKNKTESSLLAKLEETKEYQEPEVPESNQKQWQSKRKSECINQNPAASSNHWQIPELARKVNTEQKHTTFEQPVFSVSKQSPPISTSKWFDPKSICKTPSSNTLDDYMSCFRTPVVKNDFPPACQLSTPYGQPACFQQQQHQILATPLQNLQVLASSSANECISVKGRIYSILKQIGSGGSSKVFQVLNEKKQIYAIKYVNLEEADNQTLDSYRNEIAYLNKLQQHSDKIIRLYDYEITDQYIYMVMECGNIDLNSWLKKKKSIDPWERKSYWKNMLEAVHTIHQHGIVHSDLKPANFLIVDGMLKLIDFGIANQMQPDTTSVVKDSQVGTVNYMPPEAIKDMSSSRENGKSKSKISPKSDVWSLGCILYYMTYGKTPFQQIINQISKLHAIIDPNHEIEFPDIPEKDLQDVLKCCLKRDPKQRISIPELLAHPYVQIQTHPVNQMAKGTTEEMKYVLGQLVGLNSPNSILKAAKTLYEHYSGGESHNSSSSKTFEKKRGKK
PERK, sequence (Q9NZJ5 540-1115): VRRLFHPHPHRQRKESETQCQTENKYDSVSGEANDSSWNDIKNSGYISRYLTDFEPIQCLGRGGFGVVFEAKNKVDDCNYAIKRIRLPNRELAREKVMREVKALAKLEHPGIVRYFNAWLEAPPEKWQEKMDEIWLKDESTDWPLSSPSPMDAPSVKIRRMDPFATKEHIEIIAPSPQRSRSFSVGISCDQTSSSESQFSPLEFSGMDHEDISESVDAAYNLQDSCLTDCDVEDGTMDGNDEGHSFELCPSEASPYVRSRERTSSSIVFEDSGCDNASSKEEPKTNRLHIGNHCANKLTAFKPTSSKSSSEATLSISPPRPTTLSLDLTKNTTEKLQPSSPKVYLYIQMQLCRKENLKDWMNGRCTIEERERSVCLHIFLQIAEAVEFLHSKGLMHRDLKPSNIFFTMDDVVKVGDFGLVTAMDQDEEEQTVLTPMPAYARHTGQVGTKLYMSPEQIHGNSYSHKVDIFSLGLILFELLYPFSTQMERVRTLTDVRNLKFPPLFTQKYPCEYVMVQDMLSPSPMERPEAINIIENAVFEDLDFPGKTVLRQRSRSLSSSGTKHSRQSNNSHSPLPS

SMILES	IC50 (MPS1)	IC50 (PERK)
COc1cc(C(=O)NC2CCN(C)CC2)ccc1Nc1ncc2c(n1)-c1noc(C(N)=O)c1C(C)(C)C2 [Compound 30, 8-({2-methoxy-4-[(1-methylpiperidin-4-yl)carbamoyl]phenyl}amino)-4,4-dimethyl-4,5-dihydroisoxazolo[4,3-h]quinazoline-3-carboxamide]	0.68 µM	0.4 µM
COc1cc(C(=O)NC2CCN(C)CC2)ccc1Nc1ncc2c(n1)-c1onc(C(N)=O)c1CC2(C)C [Compound 55, 8-({2-methoxy-4-[(1-methylpiperidin-4-yl)carbamoyl]phenyl}amino)-5,5-dimethyl-4,5-dihydroisoxazolo[4,5-h]quinazoline-3-carboxamide]	3.44 µM	0.51 µM
COc1cc(C(=O)NC2CCN(C)CC2)ccc1Nc1ncc2c(n1)-c1onc(C(=O)N[C@@H](CN)c3ccccc3)c1CC2(C)C [Compound 61, N-[(1R)-2-amino-1-phenylethyl]-8-({2-methoxy-4-[(1-methylpiperidin-4-yl)carbamoyl]phenyl}amino)-5,5-dimethyl-4,5-dihydroisoxazolo[4,5-h]quinazoline-3-carboxamide]	0.36 µM	0.24 µM
